Laboratory results: patent publication US20180036439A1, “COUPLED IDENTIFICATION AND TREATMENT OF CANCER” (priority 2009, published 2018)

Legend:
Type in all cases: in vivo, human
[1] = tolerability of Nexavar treatment in the subject with primary liver cancer; details: 800 mg/day, terminated after about 10 weeks; one patient
Experimental: (§1) The subject of this study was a person who was diagnosed with non-resectable primary liver cancer (hepatocellular carcinoma). The diagnosis was based on results of x-ray CT scans and tumor biopsy. Within two weeks of diagnosis the subject began treatment with Nexavar® (sorafenib) at a dose of 800 mg/day.

[2] = test system: liver tumors (hepatocellular carcinoma); assay: gallium scan (planar and SPECT) after intravenous ^67Ga citrate; details: 134 MBq ^67Ga citrate i.v., one patient
Experimental: Very briefly, a gallium scan is performed by administering a small amount of a gallium radioisotope (usually ^67Ga) to a subject and then scanning the subject to map the distribution of resulting radioactivity in the body; the amount of radioactivity will be directly proportional to the uptake of gallium. Scanning is performed on the whole body or portions of the body using a scintillation detector or other suitable radiation detector.
Scanning is performed using a scintillation detector or another detector that is sensitive to the radiation produced by the gallium radioisotope (e.g., gamma rays for ^67Ga). For ^67Ga, a multipeak gamma camera with a large field of view and head shielding is commonly used. Scans may be either planar (two-dimensional (2-D) imaging) or as multiple tomographic scans leading to three-dimensional (3-D) imaging. The latter scans generally employ single-photon emission computerized tomography (SPECT or SPET), which may provide higher contrast and localization than planar images alone.
Planar and SPECT images were obtained 48 hours after ^67Ga citrate administration. […] At that time the subject was experiencing moderate nausea, anorexia, and fatigue, with severe pain and tenderness of the right abdomen that prevented the subject from lying on their right side.

[3] = test system: non-resectable primary liver cancer (hepatocellular carcinoma); assay: oral gallium maltolate treatment of a subject with primary liver cancer; details: one patient
Experimental: as §1
Based on the high avidity of the subject's hepatocellular carcinoma for gallium, as shown by the gallium scans, treatment of the patient with orally administered gallium maltolate was initiated. Treatment was started about a week after the gallium scans were performed. Gallium maltolate was administered as two 750 mg tablets taken once per day before breakfast (for a dose of 1500 mg/day). The largest tumor was about 20 cm in diameter by CT scan at three weeks before gallium maltolate administration was started.
The patient reported that their right abdominal pain was nearly gone, and they could lie and sleep on their right side.

[4] = about four months into treatment, 1500 mg/day oral
[5] = two weeks after start of 1500 mg/day oral

Structure (SMILES): CNC(=O)c1cc(Oc2ccc(NC(=O)Nc3ccc(Cl)c(C(F)(F)F)c3)cc2)ccn1 [Nexavar®, sorafenib]
- adverse effects that led to termination of treatment [1]: severe peripheral neuropathy, nausea, fatigue, gastrointestinal disorders, and anorexia

Structure (SMILES): O=C([O-])CC(O)(CC(=O)[O-])C(=O)[O-].[67Ga+3] [^67Ga citrate]
- gallium uptake in the surrounding liver tissue and in other organs ([2]; images 48 hours after administration): very low uptake
- gallium uptake in the liver tumors, average counts per second relative to surrounding healthy liver tissue ([2]; planar and SPECT images 48 hours after administration): twenty to fifty

Structure (SMILES): Cc1occc(=O)c1[O-].Cc1occc(=O)c1[O-].Cc1occc(=O)c1[O-].[Ga+3] [gallium maltolate, tris(3-hydroxy-2-methyl-4H-pyran-4-onato)gallium]
- state of the primary tumor by CT scan [3, 4]: apparent necrosis of the primary tumor
- tumor growth by CT scan [3, 4]: no new tumor growth
- patient's condition ([3]; over the next six months of treatment, 1500 mg/day oral): continued to improve
- serum bilirubin (total) ([3]; two weeks after start of 1500 mg/day oral, before treatment 27.5, normal 2-20): 11.9 µmol/L
- serum AST ([3]; two weeks after start of 1500 mg/day oral, before treatment 132, normal 0-40): 70 IU/L
- ability to engage in normal activities [3, 5]: substantially increased
- right abdominal pain (patient report) [3, 5]: nearly gone
